Assay results: the NIST ThermoML archive (doi:10.1016/j.jct.2008.10.010)
± gives the expanded uncertainty stated by the source.

Assay: molar heat capacity at constant pressure; xn = mol fraction of the nth substance listed
Details: 101.3 kPa, Liquid, Small sample (50 mg) DSC

CCC(C)(C)O [2-methylbutan-2-ol] + CCCCCCC
molar heat capacity at constant pressure [J/K/mol]
Details | 292.14 K | 292.16 K | 293.14 K | 294.15 K | 295.14 K | 296.14 K | 297.15 K
x1 = 0.0061 | – | – | 223.05 ± 3.5 | 223.39 ± 3.5 | 223.7 ± 3.5 | 223.96 ± 3.5 | 224.33 ± 3.5
x1 = 0.0249 | – | 228.51 ± 3.5 | 228.85 ± 3.5 | 229.18 ± 3.5 | 229.37 ± 3.5 | 229.63 ± 3.6 | 229.81 ± 3.6
x1 = 0.0494 | – | – | 233.49 ± 3.6 | 233.86 ± 3.6 | 234.25 ± 3.6 | 234.59 ± 3.6 | 235.01 ± 3.6
x1 = 0.1 | – | – | 238.13 ± 3.7 | 238.71 ± 3.7 | 239.22 ± 3.7 | 239.76 ± 3.7 | 240.36 ± 3.7
x1 = 0.1547 | – | – | 240.82 ± 3.7 | 241.58 ± 3.7 | 242.31 ± 3.8 | 242.94 ± 3.8 | –
x1 = 0.1999 | – | – | 242.32 ± 3.8 | 243.15 ± 3.8 | 243.96 ± 3.8 | 244.6 ± 3.8 | –
x1 = 0.2993 | – | – | 244.48 ± 3.8 | 245.43 ± 3.8 | 246.32 ± 3.8 | 247.2 ± 3.8 | –
x1 = 0.4051 | – | – | 245.2 ± 3.8 | 246.27 ± 3.8 | 247.28 ± 3.8 | 248.27 ± 3.9 | –
x1 = 0.4986 | – | – | 245.35 ± 3.8 | 246.46 ± 3.8 | 247.54 ± 3.8 | 248.61 ± 3.9 | –
x1 = 0.5981 | – | – | 245.12 ± 3.8 | 246.23 ± 3.8 | 247.38 ± 3.8 | 248.5 ± 3.9 | –
x1 = 0.7015 | – | – | 244.38 ± 3.8 | 245.52 ± 3.8 | 246.7 ± 3.8 | 247.88 ± 3.8 | –
x1 = 0.8023 | – | – | 243.13 ± 3.8 | 244.34 ± 3.8 | 245.54 ± 3.8 | 246.68 ± 3.8 | –
x1 = 0.9139 | – | – | 242.22 ± 3.8 | 243.38 ± 3.8 | 244.5 ± 3.8 | 245.64 ± 3.8 | –
x1 = 0.9609 | 240.86 ± 3.7 | – | 241.95 ± 3.8 | 243.11 ± 3.8 | 244.22 ± 3.8 | 245.31 ± 3.8 | –
